According to article PMC7914897, “Cytotoxic Potential of a-Azepano- and 3-Amino-3,4-SeCo-Triterpenoids” (International Journal of Molecular Sciences, 2021):
Read-outs that look alike come from different tables or passages of the source.

What was measured:
SW-620 (Colon cancer) = assay: NCI-60 screen (SRB, 48 h); conditions: Homo sapiens
PC-3 (Prostate cancer) = assay: NCI-60 screen (SRB, 48 h); conditions: Homo sapiens
COLO 205 (Colon cancer) = assay: NCI-60 screen (SRB, 48 h); conditions: Homo sapiens
[1] = test system: NCI-H322M (NSC lung cancer); assay: NCI-60 screen (SRB, 48 h); conditions: Homo sapiens
BT-549 (Breast cancer) = assay: NCI-60 screen (SRB, 48 h); assay type: cell-based; conditions: Homo sapiens
Ovarian Cancer subpanel = assay: NCI-60 screen, subpanel; conditions: Homo sapiens
SK-MEL-2 (Melanoma) = assay: NCI-60 screen (SRB, 48 h); conditions: Homo sapiens
ACHN (Renal cancer) = assay: NCI-60 screen (SRB, 48 h)
A498 (Renal cancer) = assay: NCI-60 screen (SRB, 48 h)
[2] = test system: panel of approximately 60 cancer cell lines; assay: NCI-60 screen (SRB, 48 h), full panel
SK-OV-3 (Ovarian cancer) = assay: NCI-60 screen (SRB, 48 h); conditions: Homo sapiens
[3] = test system: NCI-H226 (NSC lung cancer); assay: NCI-60 screen (SRB, 48 h); conditions: Homo sapiens
DU-145 (Prostate cancer) = assay: NCI-60 screen (SRB, 48 h); conditions: Homo sapiens
SNB-75 (CNS cancer) = assay: NCI-60 screen (SRB, 48 h)
OVCAR-3 (Ovarian cancer) = assay: cells; conditions: Homo sapiens
Breast cancer subpanel = assay: NCI-60 screen, subpanel; conditions: Homo sapiens
NSC lung cancer subpanel = assay: NCI-60 screen, subpanel; conditions: Homo sapiens
Melanoma subpanel = assay: NCI-60 screen, subpanel; conditions: Homo sapiens
[4] = test system: NCI-H460 (NSC lung cancer); assay: NCI-60 screen (SRB, 48 h); conditions: Homo sapiens
MCF7 (Breast cancer) = assay: NCI-60 screen (SRB, 48 h); conditions: Homo sapiens
RXF 393 (Renal cancer) = assay: NCI-60 screen (SRB, 48 h); conditions: Homo sapiens
HOP-62 (NSC lung cancer) = assay: NCI-60 screen (SRB, 48 h); conditions: Homo sapiens
Renal Cancer subpanel = assay: NCI-60 screen, subpanel; conditions: Homo sapiens
UACC-62 (Melanoma) = assay: NCI-60 screen (SRB, 48 h); conditions: Homo sapiens
LOX IMVI (Melanoma) = assay: NCI-60 screen (SRB, 48 h); assay type: cell-based; conditions: Homo sapiens
UO-31 (Renal cancer) = assay: NCI-60 screen (SRB, 48 h); conditions: Homo sapiens
HCC-2998 (Colon cancer) = assay: NCI-60 screen (SRB, 48 h); conditions: Homo sapiens
M14 (Melanoma) = assay: NCI-60 screen (SRB, 48 h); conditions: Homo sapiens

Which results are given for C=C(C)[C@@H]1CC[C@]2(C(=O)N[C@H](CO)Cc3ccccc3)CC[C@]3(C)[C@H](CC[C@@H]4[C@@]5(C)CCCNC(C)(C)[C@@H]5CC[C@]43C)[C@@H]12 [Compound 11]?
GI50 (SW-620 (Colon cancer); SW-620): 850 nM; IC (TGI) (SW-620 (Colon cancer); SW-620, 48 h, read-out: TGI): 2260 nM; GI50 (PC-3 (Prostate cancer); PC-3): 1160 nM; IC (TGI) (PC-3 (Prostate cancer); PC-3, 48 h, read-out: TGI): 2620 nM; GI50 (COLO 205 (Colon cancer); COLO 205): 1310 nM; IC (TGI) (COLO 205 (Colon cancer); COLO 205, 48 h, read-out: TGI): 2940 nM; GI50 [1]: 1550 nM; IC (TGI) ([1]; 48 h, read-out: TGI): 2790 nM; GI50 (BT-549 (Breast cancer); BT-549): 1690 nM; IC (TGI) (BT-549 (Breast cancer); BT-549, 48 h): 3320 nM; IC (TGI) (Ovarian Cancer subpanel; 48 h, read-out: TGI MG_MID): 2620 nM; GI50 (Ovarian Cancer subpanel; read-out: GI50 MG_MID): 1200 nM; GI50 (SK-MEL-2 (Melanoma); SK-MEL-2): 1720 nM; IC (TGI) (SK-MEL-2 (Melanoma); SK-MEL-2, 48 h, read-out: TGI): 3180 nM; CC50 (SK-MEL-2 (Melanoma); SK-MEL-2, read-out: LC50): 5870 nM; Growth % of the Most Sensitive Cell Lines (ACHN (Renal cancer); 1 dose 10 µM): −95.87%; GI50 (ACHN (Renal cancer); Homo sapiens): 1710 nM; IC (TGI) (ACHN (Renal cancer); Homo sapiens, 48 h, read-out: TGI): 3160 nM; Growth % of the Most Sensitive Cell Lines (A498 (Renal cancer); A498, 1 dose 10 µM): −97.92%; GI50 (A498 (Renal cancer); Homo sapiens, A498): 1490 nM; IC (TGI) (A498 (Renal cancer); Homo sapiens, A498, 48 h, read-out: TGI): 2940 nM; CC50 (A498 (Renal cancer); Homo sapiens, A498, read-out: LC50): 5810 nM; number of cancer cell lines the compound was active against ([2]; 1 dose 10 µM): effective against the all NCI-60 cancer cell line panel; activity at 10 µM ([2]; Homo sapiens, 48 h, read-out: Mean Growth, %): -83.1%; activity at 10 µM ([2]; Homo sapiens, 48 h, read-out: Range of Growth, %): -97.9 to -46.7%; IC (TGI) ([2]; Homo sapiens, 48 h, read-out: TGI MG_MID60, average over all cell lines): 2640 nM; GI50 ([2]; Homo sapiens, read-out: GI50 MG_MID60): 1290 nM; GI50 ([2]; Homo sapiens, read-out: GI50 against all human tumor cell lines): < 3000 nM; GI50 ([2]; Homo sapiens, read-out: GI50 against the most sensitive cell lines): 200 to 940 nM; CC50 ([2]; Homo sapiens, read-out: LC50 MG_MID60, average over all cell lines): 5620 nM; GI50 (SK-OV-3 (Ovarian cancer); SK-OV-3): 1730 nM; IC (TGI) (SK-OV-3 (Ovarian cancer); SK-OV-3, 48 h, read-out: TGI): 3230 nM; GI50 ([3]; NCI-H226): 1740 nM; IC (TGI) ([3]; NCI-H226, 48 h, read-out: TGI): 4010 nM; GI50 (DU-145 (Prostate cancer); DU-145): 1480 nM; IC (TGI) (DU-145 (Prostate cancer); DU-145, 48 h, read-out: TGI): 2870 nM; GI50 (SNB-75 (CNS cancer); Homo sapiens, SNB-75): 1430 nM; IC (TGI) (SNB-75 (CNS cancer); Homo sapiens, SNB-75, 48 h, read-out: TGI): 2870 nM; CC50 (SNB-75 (CNS cancer); Homo sapiens, SNB-75, read-out: LC50): 5720 nM; Growth % of the Most Sensitive Cell Lines (SNB-75 (CNS cancer); SNB-75, 1 dose 10 µM): −95.12%; GI50 (OVCAR-3 (Ovarian cancer); OVCAR-3): 460 nM; IC (TGI) (OVCAR-3 (Ovarian cancer); OVCAR-3, 48 h, read-out: TGI): 1600 nM; IC (TGI) (Breast cancer subpanel; 48 h, read-out: TGI MG_MID): 3160 nM; GI50 (Breast cancer subpanel; read-out: GI50 MG_MID): 1410 nM; CC50 (Breast cancer subpanel; read-out: LC50 MG_MID): 6010 nM; IC (TGI) (NSC lung cancer subpanel; 48 h, read-out: TGI MG_MID): 3150 nM; GI50 (NSC lung cancer subpanel; read-out: GI50 MG_MID): 1520 nM; CC50 (NSC lung cancer subpanel; read-out: LC50 MG_MID): 6410 nM; IC (TGI) (Melanoma subpanel; 48 h, read-out: TGI MG_MID): 2870 nM; GI50 (Melanoma subpanel; read-out: GI50 MG_MID): 1420 nM; CC50 (Melanoma subpanel; read-out: LC50 MG_MID): 6070 nM; GI50 ([4]; NCI-H460): 1210 nM; IC (TGI) ([4]; NCI-H460, 48 h, read-out: TGI): 2770 nM; GI50 (MCF7 (Breast cancer); MCF7): 490 nM; IC (TGI) (MCF7 (Breast cancer); MCF7, 48 h, read-out: TGI): 2060 nM; GI50 (RXF 393 (Renal cancer); RXF 393): 1670 nM; IC (TGI) (RXF 393 (Renal cancer); RXF 393, 48 h, read-out: TGI): 3270 nM; GI50 (HOP-62 (NSC lung cancer); HOP-62): 1710 nM; IC (TGI) (HOP-62 (NSC lung cancer); HOP-62, 48 h, read-out: TGI): 3340 nM; IC (TGI) (Renal Cancer subpanel; 48 h, read-out: TGI MG_MID): 2930 nM; GI50 (Renal Cancer subpanel; read-out: GI50 MG_MID): 1460 nM; CC50 (Renal Cancer subpanel; read-out: LC50 MG_MID): 5760 nM; GI50 (UACC-62 (Melanoma); UACC-62): 1760 nM; IC (TGI) (UACC-62 (Melanoma); UACC-62, 48 h, read-out: TGI): 3390 nM; CC50 (UACC-62 (Melanoma); UACC-62, read-out: LC50): 6520 nM; IC (TGI) (LOX IMVI (Melanoma); 48 h): 2420 nM; GI50 (LOX IMVI (Melanoma); read-out: GI50): 1070 nM; GI50 (UO-31 (Renal cancer); UO-31): 1500 nM; IC (TGI) (UO-31 (Renal cancer); UO-31, 48 h, read-out: TGI): 2960 nM; GI50 (HCC-2998 (Colon cancer); HCC 2998): 1610 nM; IC (TGI) (HCC-2998 (Colon cancer); HCC 2998, 48 h, read-out: TGI): 3050 nM; GI50 (M14 (Melanoma); M14): 740 nM; IC (TGI) (M14 (Melanoma); M14, 48 h, read-out: TGI): 2190 nM
